The values that follow come from patent US10988477B2 (Merck Patent GmbH, priority 2018, dated 2021).

The assay has as its target GCN2 kinase (Homo sapiens, UniProt Q9P2K8). As to the kind of experiment: GCN2 enzyme inhibition assay (Transcreener ADP2 fluorescence polarization). It is filed as biochemical. Particulars: 280 μM ATP. The method, then:
Compounds were screened for their ability to inhibit GCN2 kinase activity using a Transcreener® ADP^2 fluorescence polarization assay that detects ADP levels (BellBrook Labs, WI). Assays were carried out in a buffer consisting of 25 mM Tris-HCl (pH 7.5), 50 mM NaCl, 10 mM MgCl2 and 1 mM DTT. Final substrate concentrations were 280 μM ATP and 200 μM peptidic substrate ([…]-OH [(RS)7], Bachem, Switzerland). Assays were carried out at 25° C. in the presence of a (typical) final concentration of 4 nM GCN2 kinase. An assay buffer containing GCN2 kinase and (RS)7 was prepared. 4.7 μL of this stock solution was placed per well of a black, low volume, 384-well microtitre plate (e.g. catalogue number 3676, Corning Inc., NY). To this was added […] of DMSO containing serial dilutions of the test compound (typical final concentrations of test compound were 0 to 8 μM). The plate was incubated for 10 minutes at 25° C. prior to the addition of 4.7 μL of ATP stock buffer to initiate the enzyme reaction. The reaction was allowed to proceed for 1 hour at 25° C., prior to the addition of 10 μL detection buffer (consisting of appropriate concentrations of ADP^2 antibody and ADP Alexa633 tracer in 1× stop and detect buffer as supplied by BellBrook Labs). […] Percentage inhibition of enzyme activity was then calculated at each compound dose. IC50 and Ki(app) (using known assay and kinetic parameters) values were calculated from percentage inhibition data using a non-linear, tight-binding algorithm. All data analysis was undertaken using the Screener® software package (Genedata, Switzerland).

Setting [1] is: compounds of Formula II, 4 nM GCN2 kinase.
[2] abbreviates: Enzyme activity for compounds of Formula IV, Ki(app), 25° C.

Each structure is given as a SMILES string.

Chain of GCN2 kinase (Q9P2K8 whole entry): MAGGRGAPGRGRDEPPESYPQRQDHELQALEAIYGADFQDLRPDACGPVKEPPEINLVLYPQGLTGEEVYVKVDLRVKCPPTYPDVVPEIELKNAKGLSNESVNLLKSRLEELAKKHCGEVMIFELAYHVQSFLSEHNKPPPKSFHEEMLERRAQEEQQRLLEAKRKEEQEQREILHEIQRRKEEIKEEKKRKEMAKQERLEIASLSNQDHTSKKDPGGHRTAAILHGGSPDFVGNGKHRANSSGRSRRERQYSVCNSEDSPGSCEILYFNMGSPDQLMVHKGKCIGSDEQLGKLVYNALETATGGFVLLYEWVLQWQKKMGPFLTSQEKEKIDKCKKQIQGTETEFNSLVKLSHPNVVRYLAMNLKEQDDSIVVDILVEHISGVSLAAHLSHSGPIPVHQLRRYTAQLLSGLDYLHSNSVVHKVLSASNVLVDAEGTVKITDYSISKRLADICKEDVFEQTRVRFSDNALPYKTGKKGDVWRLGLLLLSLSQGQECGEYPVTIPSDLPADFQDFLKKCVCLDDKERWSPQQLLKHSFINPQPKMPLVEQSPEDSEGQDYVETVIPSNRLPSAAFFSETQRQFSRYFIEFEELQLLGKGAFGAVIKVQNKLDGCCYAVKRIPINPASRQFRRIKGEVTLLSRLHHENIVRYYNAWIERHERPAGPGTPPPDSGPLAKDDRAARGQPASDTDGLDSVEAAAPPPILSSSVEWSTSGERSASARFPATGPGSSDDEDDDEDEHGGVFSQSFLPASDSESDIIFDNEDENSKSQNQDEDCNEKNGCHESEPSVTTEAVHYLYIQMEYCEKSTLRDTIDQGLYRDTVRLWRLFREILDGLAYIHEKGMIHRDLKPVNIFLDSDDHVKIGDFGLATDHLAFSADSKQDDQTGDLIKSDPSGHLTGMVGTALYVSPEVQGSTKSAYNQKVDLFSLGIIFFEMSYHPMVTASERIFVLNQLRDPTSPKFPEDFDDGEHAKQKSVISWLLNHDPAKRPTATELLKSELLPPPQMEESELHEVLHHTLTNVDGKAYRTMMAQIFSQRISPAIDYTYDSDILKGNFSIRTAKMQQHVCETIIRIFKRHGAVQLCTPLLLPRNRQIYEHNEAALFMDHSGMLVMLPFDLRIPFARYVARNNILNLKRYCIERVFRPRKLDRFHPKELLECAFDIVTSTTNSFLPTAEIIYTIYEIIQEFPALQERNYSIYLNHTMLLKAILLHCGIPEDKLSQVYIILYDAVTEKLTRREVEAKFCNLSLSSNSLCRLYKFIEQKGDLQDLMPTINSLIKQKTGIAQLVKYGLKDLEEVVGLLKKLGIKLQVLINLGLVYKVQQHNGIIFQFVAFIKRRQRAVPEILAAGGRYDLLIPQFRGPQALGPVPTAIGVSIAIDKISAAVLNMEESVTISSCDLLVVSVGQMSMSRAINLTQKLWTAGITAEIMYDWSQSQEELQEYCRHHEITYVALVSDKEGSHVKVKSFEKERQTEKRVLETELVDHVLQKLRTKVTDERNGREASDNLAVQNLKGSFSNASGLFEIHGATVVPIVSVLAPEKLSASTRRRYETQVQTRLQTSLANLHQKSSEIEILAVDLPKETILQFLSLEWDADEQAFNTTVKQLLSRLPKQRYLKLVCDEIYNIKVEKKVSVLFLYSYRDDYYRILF

As for `FC(F)c1ccc2ncc(-c3ccnc(N4CCCNCC4)c3)n2n1`, the Ki under setting [1] lay within 0.01 to 1 µM.
The same measure, in the same setting: as for `CS(=O)(=O)NCC1CC(C#N)CN(c2cc(-c3cnc4ccc(C(F)F)nn34)ncn2)C1` (stereo not drawn) [listing 1 of 3 here], the figure is 0.01 to 1 µM; as for `CS(=O)(=O)NCC1CC(C#N)CN(c2cc(-c3cnc4ccc(C(F)F)nn34)ncn2)C1` (stereo not drawn) [listing 2 of 3 here], 0.01 to 1 µM; as for `CS(=O)(=O)NCC1CC(C#N)CN(c2cc(-c3cnc4ccc(C(F)F)nn34)ncn2)C1` (stereo not drawn) [listing 3 of 3 here], below 0.01 µM.
Under setting [2], `CC1CC(C(N)=O)CN(c2ccnc(-c3cnc4cnc(C(F)F)cn34)n2)C1` (mixture of isomers) [IV-107, 1-(2-(6-(Difluoromethyl)imidazo[1,2-a]pyrazin-3-yl)pyrimidin-4-yl)-5-methylpiperidine-3-carboxamide] showed a Ki of 0.01 to 0.1 µM.
In turn, `CP(C)(=O)C1CC(c2cn[nH]c2)CN(c2ccnc(-c3cnc4sc(C(F)(F)F)cn34)n2)C1` (racemic) [Compound V-6, 5-[4-[3-Dimethylphosphoryl-5-(1H-pyrazol-4-yl)-1-piperidyl]pyrimidin-2-yl]-2-(trifluoromethyl)imidazo[2,1-b]thiazole] had a Ki (compounds of Formula V, 4 nM GCN2 kinase) of 0.1 to 1 µM.
Under setting [2], `C[C@H]1[C@@H](c2cn[nH]c2)OCCN1c1ccnc(-c2cnc3cnc(Cl)cn23)n1` (racemic) [IV-235, Cis-4-(2-(6-Chloroimidazo[1,2-a]pyrazin-3-yl)pyrimidin-4-yl)-3-methyl-2-(1H-pyrazol-4-yl)morpholine] registered a Ki below 0.01 µM.
As for `C[C@H]1[C@H](c2cn[nH]c2)OCCN1c1ccnc(-c2cnc3cnc(Cl)cn23)n1` (racemic) [IV-236, Trans-4-(2-(6-Chloroimidazo[1,2-a]pyrazin-3-yl)pyrimidin-4-yl)-3-methyl-2-(1H-pyrazol-4-yl)morpholine], the Ki under setting [2] lay within 0.01 to 0.1 µM.
As for `C[C@H]1[C@H](c2cn[nH]c2)OCCN1c1ccnc(-c2cnc3cnc(C#N)cn23)n1` (racemic) [IV-281, Trans-3-(4-(3-Methyl-2-(1H-pyrazol-4-yl)morpholino)pyrimidin-2-yl)imidazo[1,2-a]pyrazine-6-carbonitrile], the Ki under setting [2] was 0.01 to 0.1 µM.
In the case of `C[C@H]1[C@@H](c2cn[nH]c2)OCCN1c1ccnc(-c2cnc3cnc(Br)cn23)n1` (racemic) [IV-306, Cis-4-(2-(6-Bromoimidazo[1,2-a]pyrazin-3-yl)pyrimidin-4-yl)-3-methyl-2-(1H-pyrazol-4-yl)morpholine], under setting [2], the Ki was below 0.01 µM.
Turning to `C[C@H]1[C@H](c2cn[nH]c2)OCCN1c1ccnc(-c2cnc3cnc(Br)cn23)n1` (racemic) [IV-312, Trans-4-(2-(6-Bromoimidazo[1,2-a]pyrazin-3-yl)pyrimidin-4-yl)-3-methyl-2-(1H-pyrazol-4-yl)morpholine], the Ki under setting [2] lay in the range of 0.01 to 0.1 µM.
For `C[C@H]1NCCN(c2ccnc(-c3cnc4cnc(Br)cn34)n2)[C@H]1c1cn[nH]c1` (racemic) [IV-342, Cis-6-Bromo-3-(4-(3-methyl-2-(1H-pyrazol-4-yl)piperazin-1-yl)pyrimidin-2-yl)imidazo[1,2-a]pyrazine], the Ki under setting [2] fell in the range of 0.1 to 1 µM.
On the same count and under the same terms, as for `C[C@H]1CN(c2ccnc(-c3cnc4cnc(C(F)(F)F)cn34)n2)C[C@@H](c2c[nH]cn2)O1` (racemic) [IV-380, Cis-2-(1H-Imidazol-4-yl)-6-methyl-4-(2-(6-(trifluoromethyl)imidazo[1,2-a]pyrazin-3-yl)pyrimidin-4-yl)morpholine], the figure is below 0.01 µM.
`C[C@@H]1CN(c2ccnc(-c3cnc4cnc(C(F)(F)F)cn34)n2)C[C@@H](c2c[nH]cn2)O1` (racemic) [IV-381, Trans-2-(1H-Imidazol-4-yl)-6-methyl-4-(2-(6-(trifluoromethyl)imidazo[1,2-a]pyrazin-3-yl)pyrimidin-4-yl)morpholine]: the Ki under setting [2] is 0.01 to 0.1 µM.
Under setting [2], `CS(C)(=O)=N[C@@H]1C[C@H](c2cn[nH]c2)CN(c2ccnc(-c3cnc4cnc(C(F)(F)F)cn34)n2)C1` (racemic) [IV-395] returned a Ki of 0.01 to 0.1 µM.
`C[C@H]1[C@@H](C(N)=O)CCCN1c1ccnc(-c2cnc3cnc(C(F)(F)F)cn23)n1` (racemic) [IV-453, Cis-2-Methyl-1-(2-(6-(trifluoromethyl)imidazo[1,2-a]pyrazin-3-yl)pyrimidin-4-yl)piperidine-3-carboxamide]: the Ki under setting [2] was below 0.01 µM.
Same read-out and setting: as for `C[C@@H]1CN(c2ccnc(-c3cnc4cnc(C(F)(F)F)cn34)n2)C[C@H](c2ccnn2C)N1` (racemic) [IV-667, Cis-3-(4-(3-Methyl-5-(1-methyl-1H-pyrazol-5-yl)piperazin-1-yl)pyrimidin-2-yl)-6-(trifluoromethyl)imidazo[1,2-a]pyrazine], the figure is 0.1 to 1 µM; as for `C[C@@H]1CN(c2ccnc(-c3cnc4cnc(C(F)(F)F)cn34)n2)C[C@H](c2cncn2C)N1` (racemic) [IV-672, Cis-3-(4-(3-Methyl-5-(1-methyl-1H-imidazol-5-yl)piperazin-1-yl)pyrimidin-2-yl)-6-(trifluoromethyl)imidazo[1,2-a]pyrazine], 0.1 to 1 µM.
As to `C[C@H]1NCCN(c2ccnc(-c3cnc4cnc(C(F)(F)F)cn34)n2)[C@H]1c1cn[nH]c1` (relative stereo) [IV-208, Cis-3-(4-(3-Methyl-2-(1H-pyrazol-4-yl)piperazin-1-yl)pyrimidin-2-yl)-6-(trifluoromethyl)imidazo[1,2-a]pyrazine], the Ki under setting [2] was 0.01 to 0.1 µM.
Still for that read-out and setting: the result for `CCN1CCN(c2ccnc(-c3cnc4cnc(Br)cn34)n2)[C@@H](C)[C@H]1c1cn[nH]c1` (relative stereo) [IV-390, Cis-6-Bromo-3-(4-(4-ethyl-2-methyl-3-(1H-pyrazol-4-yl)piperazin-1-yl)pyrimidin-2-yl)imidazo[1,2-a]pyrazine] reads below 0.01 µM; that for `C[C@@H]1[C@H](c2cn[nH]c2)N(c2ccnc(-c3cnc4cnc(Br)cn34)n2)CCN1C` (relative stereo) [IV-393, Cis-6-Bromo-3-(4-(3,4-dimethyl-2-(1H-pyrazol-4-yl)piperazin-1-yl)pyrimidin-2-yl)imidazo[1,2-a]pyrazine], 0.1 to 1 µM; that for `C[C@H]1NCCN(c2ccnc(-c3cnc4cnc(C5CC5)cn34)n2)[C@H]1c1cn[nH]c1` (relative stereo) [IV-412, Cis-6-Cyclopropyl-3-(4-(3-methyl-2-(1H-pyrazol-4-yl)piperazin-1-yl)pyrimidin-2-yl)imidazo[1,2-a]pyrazine], 0.1 to 1 µM.
Regarding `CC1C(CNS(C)(=O)=O)OCCN1c1cc(-c2cnc3ccc(C(F)F)nn23)ncn1` (single isomer, unassigned) [II-371, N-((4-(6-(6-(Difluoromethyl)imidazo[1,2-b]pyridazin-3-yl)pyrimidin-4-yl)-3-methylmorpholin-2-yl)methyl)methanesulfonamide], the Ki under setting [1] was below 0.01 µM.
The molecule `CC1C(CNS(C)(=O)=O)C(F)(F)C(C)CN1c1cc(-c2cnc3ccc(C(F)F)nn23)ncn1` (single isomer, unassigned) [II-467, N-((1-(6-(6-(Difluoromethyl)imidazo[1,2-b]pyridazin-3-yl)pyrimidin-4-yl)-4,4-difluoro-2,5-dimethylpiperidin-3-yl)methyl)methanesulfonamide] came in with a Ki under setting [1] below 0.01 µM.
In the case of `CC1C(CNS(C)(=O)=O)C(F)(F)C(C)CN1c1cc(-c2cnc3ccc(C(F)F)nn23)ncn1` (single isomer, unassigned) [II-468, N-((1-(6-(6-(Difluoromethyl)imidazo[1,2-b]pyridazin-3-yl)pyrimidin-4-yl)-4,4-difluoro-2,5-dimethylpiperidin-3-yl)methyl)methanesulfonamide], the Ki under setting [1] was 0.01 to 1 µM.
Consider `CS(=O)(=O)C1CCCN(c2cc(-c3cnc4ccc(C(F)F)nn34)ncn2)C1` (single isomer, unassigned) [II-530, 6-(Difluoromethyl)-3-(6-(3-(methylsulfonyl)piperidin-1-yl)pyrimidin-4-yl)imidazo[1,2-b]pyridazine], for which the Ki under setting [1] was in the range of 0.01 to 1 µM.
On the same count and under the same terms, the result for `N#CCC1CN(c2cc(-c3cnc4ccc(C(F)F)nn34)ncn2)CCO1` (single isomer, unassigned) [II-564, 2-(4-(6-(6-(Difluoromethyl)imidazo[1,2-b]pyridazin-3-yl)pyrimidin-4-yl)morpholin-2-yl)acetonitrile] reads 0.01 to 1 µM; that for `N#CCC1CN(c2cc(-c3cnc4ccc(C(F)F)nn34)ncn2)CCO1` (single isomer, unassigned) [II-565, 2-(4-(6-(6-(Difluoromethyl)imidazo[1,2-b]pyridazin-3-yl)pyrimidin-4-yl)morpholin-2-yl)acetonitrile], 0.01 to 1 µM; that for `CC1C(N=S(C)(C)=O)CCCN1c1cc(-c2cnc3ccc(C(F)F)nn23)ncn1` (single isomer, unassigned) [II-581, ((1-(6-(6-(Difluoromethyl)imidazo[1,2-b]pyridazin-3-yl)pyrimidin-4-yl)-2-methylpiperidin-3-yl)imino)dimethyl-λ^6-sulfanone], 0.01 to 1 µM.
Still for that read-out and setting: as for `CC1C(N=S(C)(C)=O)CCCN1c1cc(-c2cnc3ccc(C(F)F)nn23)ncn1` (single isomer, unassigned) [II-582, ((1-(6-(6-(Difluoromethyl)imidazo[1,2-b]pyridazin-3-yl)pyrimidin-4-yl)-2-methylpiperidin-3-yl)imino)dimethyl-λ^6-sulfanone], the figure is above 1 µM.
